Experimental data published in ChEMBL document CHEMBL1155566, “Antifeedant activity of withanolides from Salpichroa origanifolia on Musca domestica” (J Nat Prod, 2000).
Active and inactive are the calls of the source. No cut-off for these calls is given here.

Legend:
[1] = system: Musca domestica; assay: Antifeedant activity against Musca domestica CIPEIN larvae assessed as time needed to pupate 50% at 500 ppm; type: functional
[2] = system: Musca domestica; assay: Antifeedant activity in Musca domestica CIPEIN larvae assessed as time needed to pupate 50% at 100 ppm; type: functional
[3] = system: Musca domestica; assay: Antifeedant activity against Musca domestica CIPEIN larvae assessed as inhibition of larvae development after 18 days; type: functional, organism-based
[4] = system: Musca domestica; assay: Antifeedant activity against Musca domestica CIPEIN larvae supplied with high yeast and milk concentration assessed as time needed to pupate 50%; type: functional
[5] = system: Musca domestica; assay: Antifeedant activity against Musca domestica CIPEIN larvae supplied with medium yeast and milk concentration assessed as time needed to pupate 50%; type: functional
[6] = system: Musca domestica; assay: Antifeedant activity against Musca domestica CIPEIN larvae assessed as larval mortality at 200 ppm after 18 days; type: functional

Compound	Activity [1]	Activity [2] [days]	EC50 [3] [ppm]	Activity [4] [days]	Activity [5] [days]	Activity [6] [%]
CC(=O)Oc1cc([C@H](C)[C@@H]2C[C@@H]3O[C@@H]3[C@H](OC(C)=O)O2)cc2c1[C@@H]1C[C@@H]3O[C@@]34CC=CC(=O)[C@]4(C)[C@H]1CC2	Active	–	–	–	–	–
C[C@@H](c1ccc2c(c1)CC[C@H]1[C@H]2CC(=O)[C@@]2(O)CC=CC(=O)[C@]12C)[C@@H]1C[C@@H]2O[C@@H]2C(=O)O1	inactive	–	–	–	–	–
C[C@@H](c1ccc2c(c1)CC[C@H]1[C@H]2C[C@@H]2O[C@@]23CC=CC(=O)[C@]13C)[C@@H]1C[C@@H]2O[C@@H]2C(=O)O1	inactive	–	–	–	–	–
C[C@@H](c1ccc2c(c1)CC[C@H]1[C@H]2C[C@@H]2O[C@@]23CC=CC(=O)[C@]13C)[C@@H]1C[C@@H]2O[C@@H]2[C@H](O)O1 [SALPICHROLIDE A]	10.3 days	7.9	290	6.9	12.2	100
C[C@@H](c1ccc2c(c1)CC[C@H]1[C@H]2C[C@@H](O)[C@@]2(O)CC=CC(=O)[C@]12C)[C@@H]1C[C@@H]2O[C@@H]2[C@H](O)O1 [SALPICHROLIDE C]	8.1 days	7.8	310	–	–	100
C[C@@H](c1cc(O)c2c(c1)CC[C@H]1[C@H]2C[C@@H]2O[C@@]23CC=CC(=O)[C@]13C)[C@@H]1C[C@@H]2O[C@@H]2[C@H](O)O1 [SALPICHROLIDE G]	8 days	7.7	203	–	–	100
